Measurements from patent publication US20240247289A1, “ANTIBIOTIC FREE FERMENTATIONS, SYSTEMS AND METHODS FOR ACHIEVING ANTIBIOTIC FREE FERMENTATIONS, AND FE[…]-PRODUCTS GENERATED BY ANTIBIOTIC FREE FERMENTATIONS” (POET Research, Inc., priority 2023, published 2024).

What was measured:
[1] = test system: Saccharomyces cerevisiae; details: RSH fermentation, infected samples, formic acid alone 100-400 ppm, compared to other infected samples (FIG. 1)
Description: (§1) Saccharomyces cerevisiae, yeast was added to a yeast propagation set up as follows. Ground corn was mixed with “pre-blend” (a mixture of the waters from various streams that are reused in an ethanol production facility) in an appropriate ratio to obtain slurry (mash) with 35 percent dry solids (including the solids contributed by the pre-blend water). “Preblend” was used as make up water in these studies to simulate the composition of mash, employing an exemplary embodiment provided herein, as it would be in a commercial ethanol production facility. The pH of the corn and “pre blend” slurry was approximately 4.5-4.8. An enzyme blend for raw starch hydrolysis was added to the slurry. Urea (50 percent liquor) was added to the slurry to give a final concentration of approximately 1000 ppm urea. The slurry was mixed in 100 milliliter wide mouth bottles at 60 milliliters per bottle. The bottles were covered with a bottle cap with a 1/16″ hole drilled into the top for gas release following addition of enzyme and the yeast and placed stationary in a water bath. […]
(§2) The slurry was mixed in 100 milliliter wide mouth bottles at 60 milliliters per bottle. […] Bottles were mixed well, and samples were withdrawn at various intervals during the course of fermentation and analyzed for sugars, organic acids and ethanol using high performance liquid chromatography (HPLC).

[2] = test system: lactic acid bacteria; details: RSH fermentation, infected samples, formic acid alone 100-400 ppm (FIG. 2)
Description: as §1, §2

[3] = test system: Saccharomyces cerevisiae; details: cook process fermentation, infected
Description: (§3) Saccharomyces cerevisiae, was added to a yeast propagation set up as follows. Liquefied corn slurry acquired from a biorefinery was diluted in an appropriate ratio to obtain slurry (mash) with 20 percent dry solids (including the solids contributed by the pre-blend water). The pH of the slurry liquefact was approximately 5.0-5.5. The enzyme blend for fermentation was added to the slurry. Urea (50 percent liquor) was added to the slurry to give a final concentration of approximately 1000 ppm urea. The slurry was dispensed in 100 milliliter wide mouth bottles at 60 milliliters per bottle. The bottles were covered with a bottle cap with a 1/16″ hole drilled into the top for gas release following addition of enzyme and inoculation of the necessary organisms and placed stationary in a water bath. The fermentation temperature was held constant at 32.2 degrees Celsius for 8-16 hours. This yeast propagation was then used to inoculate fermentations including yeast at a ratio level of 2% total fermentation volume.
(§4) Liquefied corn slurry was acquired from a biorefinery with 30-35% percent dry solids (including the solids contributed by the pre-blend water). The pH of the slurry was approximately 5.0. The enzyme blend for fermentation was added to the slurry. Urea (50 percent liquor) was added to the slurry to give a final concentration of approximately 1000 ppm urea. The slurry was mixed in 100 milliliter wide mouth bottles at 60 milliliters per bottle. The bottles were covered with a bottle cap with a 1/16″ hole drilled into the top for gas release following addition of enzyme and inoculation of the necessary organisms and placed stationary in a water bath. The fermentation temperature was held constant at 33 degrees Celsius for 72 hours. Bottles were mixed well, and samples were withdrawn at various intervals during the course of fermentation and analyzed for sugars, organic acids and ethanol using high performance liquid chromatography (HPLC).

[4] = test system: lactic acid bacteria; details: cook process fermentation, infected, formic acid 100-400 ppm without hop acids (FIG. 4)
Description: as §3, §4

O=CO [formic acid]
% v/v ethanol at 88 hours [1]: substantially reduced % v/v ethanol | ppm lactic acid at 88 hours [2]: reduced lactic acid ppm at 88 hours fermentation in a dose dependent method | % v/v ethanol at 72 hours, vs Phibro Xact 2.5 ppm ([3]; formic acid treated samples, at most dosages (FIG. 3)): greater than the % v/v ethanol generated by fermentation with Phibro Xact | % v/v ethanol at 72 hours ([3]; increasing doses of formic acid alone 100-400 ppm (FIG. 3)): increase in % v/v ethanol | Ppm lactic acid at 72 hours [4]: decreased dose dependently
